Measurements: patent US6004967A, “Psoriasis treatment with quinazoline compounds” (priority 1997, dated 1999)
Read-outs that look alike come from different tables or passages of the source.

Experiments:
human EGF-R = molecular target: T1, human EGF-R (Homo sapiens, UniProt P00533); experiment: EGF-R whole cell kinase assay (EGF-R-3T3 ELISA); format: cell-based; settings: for IC50: whole cell, EGF-stimulated EGF-R phosphorylation, free base, read-out: EGFR Kinase IC50
T1 construct: expressed in transfected cells; host or cells: NIH3T3 clone C7 (mouse fibroblasts)
Method: The activity of the above identified compounds in inhibiting EGF-stimulatedEGF-R phosphorylation was measured in an ELISA assay.
EGF-R kinase activity (EGF-R-3T3 assay) in whole cells was measured as described below:
Coated plates are good for up to 10 days when stored at 4° C.
On day of use, remove coating buffer and replace with blocking buffer (5% Carnation Instant NonFat Dry Milk in PBS). Incubate the plate, shaking, at room temperature (about 23° C. to 25° C.) for 30 minutes. Just prior to use, remove blocking buffer and wash plate 4 times with TBST buffer.
EGF-R/C7 cell line was used for this assay.
Choose dishes having 80-90% confluence for the experiment. Trypsinize cells and stop reaction by adding 10% CS DMEM medium. Suspend cells in DMEM medium (10% calf serum (CS) DMEM medium) and centrifuge once at 1000 rpm, and once at room temperature for 5 minutes.
Resuspend cells in seeding medium (DMEM, 0.5% bovine serum), and count the cells using trypan blue. Viability above 90% is acceptable. Seed cells in DMEM medium (0.5% bovine serum) at a density of 10,000 cells per well, 100 μl per well, in a 96 well microtiter plate. Incubate seeded cells in 5% CO2 at 37° C. for about 40 hours.
Check seeded cells for contamination using an inverted microscope. Dilute drug stock (10 mg/ml in DMSO) 1:10 in DMEM medium, then transfer 5 μl to a test well for a final drug dilution of 1:200 and a final DMSO concentration of 1%. Control wells receive DMSO alone. Incubate in 5% CO2 at 37° C. for one hour.
Control wells receive DMEM alone. Incubate and shake at room temperature for 5 minutes.
Remove drug, EGF, and DMEM. Wash cells twice with PBS. Transfer HNTG* to cells, 100 μl per well. Place on ice for 5 minutes. Meanwhile, remove blocking buffer from other ELISA plate and wash with TBST as described above.
With a pipette tip securely fitted to a micropipettor, scrape cells from plate and homogenize cell material by repeatedly aspirating and dispensing the HNTG* lysis buffer. Transfer lysate to a coated, blocked, and washed ELISA plate. Incubate and shake at room temperature for one hour.
Remove lysate and wash 4 times with TBST. Transfer freshly diluted anti-phosphotyrosine (anti-Ptyr) antibody to ELISA plate at 100 μl per well. Incubate shaking at room temperature for 30 minutes in the presence of the anti-Ptyr antiserum (1:3000 dilution in TBST).
Remove the anti-Ptyr antibody and wash 4 times with TBST. Transfer the freshly diluted TAGO 30 anti-rabbit IgG antibody (anti-rabbit IgG antibody: 1:3000 dilution in TBST) to the ELISA plate at 100 μl per well. Incubate shaking at room temperature for 30 minutes.
Remove detection antibody and wash 4 times with TBST. Transfer freshly prepared ABTS/H2 O2 solution to ELISA plate, 100 μl per well. Incubate at room temperature for 20 minutes. ABTS/H2 O2 solution: 1.2 μl 30% H2 O2 in 10 ml ABTS stock.
Stop reaction by adding 50 μl 5N H2 SO4 (optional), and determine O.D. at 410 nm.
The maximal phosphotyrosine signal is determined by subtracting the value of the negative controls from the positive controls. The percent inhibition of phosphotyrosine content for extract-containing wells is then calculated after subtraction of the negative controls.

[1] = test system: NIH 3T3 C7 cells engineered to express EGF-R (3T3-EGFR); experiment: 3T3 cell growth assay, EGF-R C7 cells (3T3-EGFR); format: cell-based; settings: Mus musculus, NIH3T3, 96 h, read-out: 3T3-EGFR IC50
Method: The efficacy of the above identified compounds in inhibiting or reducing EGF-R stimulated proliferation is measured by the 3T3 cell growth assay. The 3T3 growth assay was carried out as follows:
EGF-RC7 (NIH 3T3 C7 cells engineered to express EGF-R) and NIH 3T3C7 cells (as the control) were used for this assay. NIH3T3C7 cells were seeded at 2500 cells/well, […] in 10% CS+2 mM Glutamine/DMEM, in a 96 well plate; EGF-RC7 cells were seeded at 6000 cells/well, 100 μl/well in 2% FBS+2 mM Glutamine/DMEM, in a 96 well plate. Cells were incubated at 37° C., 5% CO2 overnight to allow for cell attachment to the plate.
A quinazoline compound was added to the cells at day 2. The compound was prepared in the appropriate growth medium (10% CS+2 mM glutamine in DMEM for NIH3T3C7 cells; 2% FBS+2 mM Glutamine in DMEM for EGF-RC7 cells) in a 96 well plate, and serially diluted. A total of 100 μl/well medium of the diluted compounds was added into the cells. The total volume of each well was 200 μl.
After the cells were treated with the compound for 4 days, the cells were washed with PBS and fixed with 200 μl/well ice-cold […] for one hour at 0-5° C.
Remove TCA and rinse wells 5 times with deionized water. Dry plates upside down with paper towels. Stain cells with 0.4% SRB at 100 μl/well for 10 minutes.
Pour off SRB and rinse plate 5 times with 1% acetic acid. Dry plate completely.
Solubilize the dye with 10 mM Tris-base at 100 μl/well for 10 minutes on a shaker.
Read the plate at dual wavelengths at 570 nm and 630 nm on Dynatech Elisa plate reader.

3T3-PDGFR = experiment: cell growth assay, PDGFR expressing cells (3T3-PDGFR), selectivity; format: cell-based; settings: for IC50: 96 h, read-out: 3T3-PDGFR IC50; for PDGFR/EGFR IC50/IC50: ratio 3T3-PDGFR / 3T3-EGFR, 5760 min
in vivo = settings: single dose, IP, BALB/c female mice; for LD50 at 168 h: mouse, in vivo; for LD50 at 168 h / LD10: 7 days; for deaths: at the dose for LD10/LD50
[2] = Plasma concentration after single IP dose; format: in vivo; settings: mouse, plasma, single dose 50 mg/kg IP, BALB/c nu/nu female mice; for concentration at […]: 15 min; for concentration at 1 h: 60 min
Method: **Single dose (50 mg/kg), IP, in BALB/c, nu/nu, female mice.

[3] = test system: psoriatic human keratinocytes; experiment: Growth of psoriatic human keratinocytes; format: cell-based
Description: Cells and Cell Culture. All tumor cell lines were obtained from the American Type Culture Collection (Rockville, Md.), unless otherwise specified. NIH3T3 mouse fibroblasts overexpressing the EGF receptor, IGF-1 receptor, insulin receptor, PDGF-b receptor, or a chimera of the EGF receptor extracellular domain fused to the Her-2 cytoplasmic domain were engineered using retroviral vectors. These cells will be referred to as 3T3-EGFR, 3T3-IGF1R, 3T3-IR, 3T3-PDGF-bR, and 3T3-EGFR/Her-2, respectively. All cell culture media and supplements were purchased from Gibco Life Technologies (Grand Island, N.Y.) unless otherwise specified. […] Cell lines were maintained under standard conditions in culture media recommended by the ATCC, unless otherwise specified. 3T3-EGFR, 3T3-PDGF-bR, and 3T3-EGFR/Her-2 cells were maintained in DMEM containing 10% calf serum (CS) and 2 mM GLN. 3T3-IGF1R and 3T3-IR cells were maintained in DMEM containing 10% FBS and 2 mM GLN. Keratinocytes were obtained from small biopsy specimens of split-thicknessskin from patients with psoriasis and from healthy control donors.
In vitro functional studies. […] Cell lines examined in receptor phosphorylation ELISA were 3T3-EGFR, 3T3-EGFR/Her-2, 3T3-PDGF-bR, 3T3-IGF1R, and 3T3-IR. For analysis of DNA replication (measured as incorporation of BrdU) and cell cycle progression, 3T3-EGFR and 3T3-PDGF-bR cell lines were used. Cell growth studies were carried out on A431 (EGF-R+), BT474 (Her-2+), and C6 (PDGF-bR+) cell lines.

T1 sequence (P00533 25-1210): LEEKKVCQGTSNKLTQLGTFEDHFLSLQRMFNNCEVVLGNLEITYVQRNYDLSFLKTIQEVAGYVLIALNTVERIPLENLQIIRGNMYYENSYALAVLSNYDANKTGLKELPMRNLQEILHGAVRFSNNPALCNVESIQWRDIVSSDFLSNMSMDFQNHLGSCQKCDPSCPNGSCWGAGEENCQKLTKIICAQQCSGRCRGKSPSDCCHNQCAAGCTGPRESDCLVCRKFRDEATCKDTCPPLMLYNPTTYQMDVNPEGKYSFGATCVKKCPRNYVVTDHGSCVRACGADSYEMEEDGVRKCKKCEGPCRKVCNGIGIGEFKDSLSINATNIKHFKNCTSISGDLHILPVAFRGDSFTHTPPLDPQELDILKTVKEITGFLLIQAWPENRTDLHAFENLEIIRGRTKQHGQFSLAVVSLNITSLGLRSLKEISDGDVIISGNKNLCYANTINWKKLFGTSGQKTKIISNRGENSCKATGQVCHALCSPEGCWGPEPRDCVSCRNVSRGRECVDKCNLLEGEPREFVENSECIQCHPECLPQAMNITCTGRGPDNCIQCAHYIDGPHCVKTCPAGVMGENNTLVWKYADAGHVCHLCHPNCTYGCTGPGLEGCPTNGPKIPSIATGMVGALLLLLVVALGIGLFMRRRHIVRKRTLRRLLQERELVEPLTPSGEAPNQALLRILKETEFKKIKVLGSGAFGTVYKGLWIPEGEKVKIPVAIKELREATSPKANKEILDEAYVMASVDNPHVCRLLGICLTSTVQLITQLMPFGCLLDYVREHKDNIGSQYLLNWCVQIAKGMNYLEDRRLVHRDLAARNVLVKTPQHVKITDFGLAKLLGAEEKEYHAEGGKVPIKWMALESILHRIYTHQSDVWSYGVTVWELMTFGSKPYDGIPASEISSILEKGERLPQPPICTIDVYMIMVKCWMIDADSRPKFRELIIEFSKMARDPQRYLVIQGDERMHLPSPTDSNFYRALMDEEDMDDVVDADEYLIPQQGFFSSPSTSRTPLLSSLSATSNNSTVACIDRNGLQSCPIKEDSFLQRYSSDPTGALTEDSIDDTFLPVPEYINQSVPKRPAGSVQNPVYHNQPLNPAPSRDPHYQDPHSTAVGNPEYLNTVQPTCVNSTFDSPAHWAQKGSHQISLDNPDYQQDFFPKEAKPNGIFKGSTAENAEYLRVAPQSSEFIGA

COc1cc2ncnc(Nc3cccc(Cl)c3)c2cc1OC [A2, 4-(3-Chlorophenylamino)-6,7-dimethoxyquinazoline]
inhibition of EGF-stimulated EGF-R phosphorylation (in words) (human EGF-R): able to inhibit
IC50 [1]: 110 nM
IC50 (3T3-PDGFR): 18000 nM
LD50 at 168 h (in vivo): > 200 mg/kg
LD10 (in vivo): > 200 mg/kg
deaths (in vivo): no
concentration at 5 min [2]: 11500 ± 4000 ng/mL
concentration at […] [2]: 6500 ± 1300 ng/mL
concentration at 1 h [2]: 3700 ± 500 ng/mL
inhibition of psoriatic skin cell / keratinocyte proliferation in vitro (in words) [3]: capable of inhibiting

Cc1ccc2ncnc(Nc3cccc(Cl)c3)c2c1 [A3, 4-(3-Chlorophenylamino)-6-methylquinazoline]
inhibition of EGF-stimulated EGF-R phosphorylation (in words) (human EGF-R): able to inhibit
IC50 (human EGF-R): 58 nM
IC50 ([1]; cell growth, 4 days, free base): 2000 nM
IC50 (3T3-PDGFR; cell growth, 4 days, free base): 10000 nM
PDGFR/EGFR IC50/IC50 (3T3-PDGFR): 5
LD50 at 168 h (in vivo): > 400 mg/kg
concentration at 5 min [2]: 7870 ± 980 ng/mL
concentration at […] [2]: 3430 ± 820 ng/mL
concentration at 1 h [2]: 1340 ± 110 ng/mL
inhibition of psoriatic skin cell / keratinocyte proliferation in vitro (in words) [3]: capable of inhibiting

COc1cc2ncnc(Nc3cccc(C(F)(F)F)c3)c2cc1OC [A4, 4-[3-(trifluoromethyl)phenylamino]-6,7-dimethoxyquinazoline]
inhibition of EGF-stimulated EGF-R phosphorylation (in words) (human EGF-R): able to inhibit
IC50 (human EGF-R): < 6 nM
IC50 ([1]; cell growth, 4 days, free base): 400 nM
IC50 (3T3-PDGFR; cell growth, 4 days, free base): 28000 nM
PDGFR/EGFR IC50/IC50 (3T3-PDGFR): 70
LD40 (in vivo; printed in LD10 and LD50 columns): 400 mg/kg
concentration at 5 min [2]: 13300 ± 1500 ng/mL
concentration at […] [2]: 12700 ± 3000 ng/mL
concentration at 1 h [2]: 3900 ng/mL
inhibition of psoriatic skin cell / keratinocyte proliferation in vitro (in words) [3]: capable of inhibiting

COc1cc2ncnc(Nc3cccc(C#N)c3)c2cc1OC [A5, 4-(3-Cyanophenylamino)-6,7-dimethoxyquinazoline]
inhibition of EGF-stimulated EGF-R phosphorylation (in words) (human EGF-R): able to inhibit
IC50 (human EGF-R): 200 nM
IC50 ([1]; cell growth, 4 days, free base): 1500 nM
IC50 (3T3-PDGFR; cell growth, 4 days, free base): > 100000 nM
PDGFR/EGFR IC50/IC50 (3T3-PDGFR): 67
LD50 at 168 h (in vivo): > 153 mg/kg
LD10 (in vivo): > 153 mg/kg
deaths (in vivo): no
concentration at 5 min [2]: 950 ± 420 ng/mL
concentration at […] [2]: 650 ± 190 ng/mL
concentration at 1 h [2]: 130 ± 60 ng/mL
inhibition of psoriatic skin cell / keratinocyte proliferation in vitro (in words) [3]: capable of inhibiting

Cc1ccc2ncnc(Nc3cccc(C(F)(F)F)c3)c2c1 [A6, 4-[3-(trifluoromethyl)phenylamino]-6-methylquinazoline]
inhibition of EGF-stimulated EGF-R phosphorylation (in words) (human EGF-R): able to inhibit
IC50 (human EGF-R): 900 nM
IC50 ([1]; cell growth, 4 days, free base): 6000 nM
IC50 (3T3-PDGFR; cell growth, 4 days, free base): 30000 nM
PDGFR/EGFR IC50/IC50 (3T3-PDGFR): 5
LD50 at 168 h (in vivo): > 400 mg/kg
LD10 (in vivo): > 400 mg/kg
deaths (in vivo): no
concentration at 5 min [2]: 4450 ± 1380 ng/mL
concentration at […] [2]: 2010 ± 530 ng/mL
concentration at 1 h [2]: 540 ± 200 ng/mL
inhibition of psoriatic skin cell / keratinocyte proliferation in vitro (in words) [3]: capable of inhibiting
